Reference: patent publication US20130281512A1, “AGENTS FOR TREATING DISORDERS INVOLVING MODULATION OF RYANODINE RECEPTORS” (LES LABORATOIRES SERVIER, priority 2012, published 2013)
Like-named read-outs stand apart in the source and are kept apart here.

Columns and labels:
human hepatocytes = assay: Metabolic stability in human hepatocytes; type: in vitro ADME
Description: Compound solubilization: Stock solutions were made in DMSO, and working solutions in William medium containing 1/10 rat plasma or 1/4 human plasma.
Metabolic stability determination: Compounds were incubated at 10^−7 M with isolated hepatocytes (6E+5 cells/ml for rat hepatocytes and 4E+5 cells/ml for human hepatocytes) at 37° C. in plasma from the same species diluted in Wiliams medium (1/10 dilution for rat and 1/4 dilution for human). Sampling times were performed at 0, 10, 20, 30, 60 and 120 min and enzymatic reaction stopped with methanol (v/v). Proteins were precipitated by centrifugation and the supernatant was analyzed by LC/MS/MS. Clint expressed as ml/min/g protein were calculated as for hepatic microsomes using a ratio of 0.134 mg protein/ml for 4E+5 cells/ml for human and 0.201 mg protein/ml for 6E+5 cells/ml for rat. The presence of the reference drug and the potential metabolite was checked by LC/MS/MS during the assay in each sample.

[1] = Metabolic stability in rat hepatic microsomes (Clint, predicted MF %); type: in vitro ADME
Description: (§1) Compound solubilization: Stock solutions were made in DMSO, and working solutions in water containing 1 mg/ml BSA.
(§2) Prediction of metabolic bioavailability: Metabolic bioavailability predictions (MF %) were based on in vitro metabolic stability measurements with hepatic microsomes assuming total absorption. Briefly, unchanged drugs were quantified by LC-MS-MS following incubation (10^−7M) with rat and human hepatic microsomes (0.33 mg protein/ml) after 0, 5, 15, 30 and 60 min of incubation in presence of NADPH (1 mM). Enzymatic reaction was stopped with methanol (v/v) and proteins were precipitated by centrifugation. The in vitro intrinsic clearances (Clint_mic) expressed as ml/min/g protein were the slope (after LN linearization) of the unchanged drug remaining concentration versus incubation time. In vitro Clint were then scaled up to in vivo whole body (vivoClint) using 0.045 mg prot/kg of liver and liver weight of 11 g for the rat and 1.2 kg for Man.

[2] = Metabolic stability in human hepatic microsomes (Clint, predicted MF %); type: in vitro ADME
Description: as §1, §2

[3] = Morning blood exposure (drug plasma concentrations) in mdx and WT mice; type: in vivo; conditions: mouse, oral, read-out: Morning blood exposure (average±SEM)
Description: Distance traveled (Km/day) over a 24 hr period was analyzed as an index of improved functional activity (see, DMD_M.2.1.002 SOP at http://www.treat-nmd.eu/). At the conclusion of the study, Extensor digitorum longus (EDL) muscle was isolated for muscle force analysis as further described hereinbelow. Blood was collected from each mouse by retro-orbital bleeds at the end of the study (after end of dark cycle—about 7 AM) to assess drug plasma concentrations. Experiments were blinded.

[4] = test system: ischemia-reperfusion induced heart failure; assay: Model of chronic post-ischemic heart failure in rat (ischemia-reperfusion injury); type: in vivo
Description: Chronic heart failure was induced in male wistar rats (224-240 g, 10-11 weeks of age) by ischemia-reperfusion (I/R) injury. For I/R protocol, the left anterior descending (LAD) coronary artery was occluded for 1 h. Drug treatment (5 mg/kg/d or 10 mg/kg/d in drinking water) was initiated 1 week after reperfusion and was maintained for a 3 month study period. […] Cardiac specimens were also analyzed to assess hypertrophy and collagen content. The study design is depicted in FIG. 3. Experiments were performed in a blinded manner. On parameters measured over time, comparison of Sham versus Vehicle and comparison of drug treatments are analyzed by 2 way ANOVAs with repeated measures. On parameters measured at sacrifice and morphometry, comparisons of Sham versus Vehicle are analyzed by t-test and comparisons of drug treatments by 1-way ANOVA followed by Dunnett test.

[5] = 10^-7 M, 0.33 mg protein/ml, NADPH
[6] = predicted from Clint assuming total absorption
[7] = 5 and 10 mg/kg/d in drinking water, one to three months, vs vehicle
[8] = 5 and 10 mg/kg/d, invasive hemodynamics at 3 months, vs vehicle

COc1ccc2c(c1)CN(Cc1ccc(C(=O)O)cc1)CCS2 [Compound 1, 4-((7-Methoxy-2,3-dihydrobenzo[f][1,4]thiazepin-4(5H)-yl)methyl)benzoic acid]
MF human % (human hepatocytes): 100% | Clint (human hepatocytes; 4.00E+05 cells/ml, 10^-7 M): 0 ml/min/gprot | Class (metabolic bioavailability) [1]: Inter- mediate | Clint_mic rat (in vitro intrinsic clearance) [1, 5]: 101 ml/min/gprot | MF mic % (metabolic bioavailability) [1, 6]: 30% | Class (metabolic bioavailability) [2]: high | Clint_mic man (in vitro intrinsic clearance) [2, 5]: 9.1 ml/min/gprot | MF mic % (metabolic bioavailability) [2, 6]: 75% | concentration at 4 weeks ([3]; C57BL/6 (WT), 50 mg/kg/d-dosed WT mice): 72.8 ± 7 µM | concentration at 4 weeks ([3]; C57BL/10ScSn-DMD^mdx/J (mdx), 5 mg/kg/d-dosed mdx mice): 3.3 ± 0.4 µM | concentration at 4 weeks ([3]; C57BL/10ScSn-DMD^mdx/J (mdx), 10 mg/kg/d-dosed mdx mice): 10.7 ± 0.9 µM | concentration at 4 weeks ([3]; C57BL/10ScSn-DMD^mdx/J (mdx), 50 mg/kg/d-dosed mdx mice): 52.8 ± 1.7 µM | systolic and diastolic cardiac function ([4]; 5 mg/kg/d in drinking water, 3 months): beneficial effects | interstitial collagen content ([4]; 5 and 10 mg/kg/d in drinking water, 3 months, vs vehicle): reduced | Ejection Fraction (EF) [4, 7]: significantly increased | LVEDV (LV end diastolic volume) [4, 7]: decreased | LVESV (LV end systolic volume) [4, 7]: decreased | body weight (BW) ([4]; 5 and 10 mg/kg/d, 3 months): No effects | hypertrophy (LV weight) ([4]; 5 and 10 mg/kg/d, 3 months): No effects | infarct size ([4]; 5 and 10 mg/kg/d, 3 months): No effects | LV systolic pressure ([4]; 5 and 10 mg/kg/d, invasive hemodynamics at 3 months): no statistically significant change | LV dP/dt max [4, 8]: preservation | LV dP/dt min [4, 8]: preservation
